Consider 16 compounds from patent US4588722A, “N-(4-piperidinyl) bicyclic condensed 2-imidazolamine derivatives” (priority 1984, dated 1986).

Each structure is given as a SMILES string.

The experiment relates to compound 48/80-induced lethality in rats. Kind of experiment: Protection of rats from compound 48/80-induced lethality. The class given is in vivo, rat (male, inbred Wistar strain). The following applies: Rattus norvegicus; test compound subcutaneously or orally (route of each value not given) 1 hour before compound 48/80 0.5 mg/kg intravenously; dose protecting 50% of animals, survival after 4 hours; read-out: Compound 48/80 lethality test in rats-ED50. From the text: PROTECTION OF RATS FROM COMPOUND 48/80-INDUCED LETHALITY
Compound 48/80, a mixture of oligomers obtained by condensation of 4-methoxy-N-methylbenzeneethanamine and formaldehyde has been described as a potent histamine releasing agent (Int. Arch. Allergy, 13, 336 (1958)). The protection from compound 48/80-induced lethal circulatory collapse appears to be a simple way of evaluating quantitatively the antihistaminic activity of test compounds. Male rats of an inbred Wistar strain, weighing 240-260 g were used in the experiment. After overnight starvation the rats were transferred to conditioned laboratories (temp.=21±1° C., relative humidity=65±5%). The rats were treated subcutaneously or orally with a test compound or with the solvent (NaCl solution, 0.9%). One hour after treatment there was injected intravenously compound 48/80, freshly dissolved in water, at a dose of 0.5 mg/kg (0.2 ml/100 g of body weight). In control experiments, wherein 250 solvent-treated animals were injected with the standard dose of compound 48/80, not more than 2.8% of the animals survived after 4 hours. Survival after 4 hours is therefore considered to be a safe criterion of a protective effect of drug administration.
Said ED50 -values are the values in mg/kg body weight at which the tested compounds protect 50% of the tested animals against compound 48/80-induced lethality.
For `CCN(CC)C(=S)NCCN1CCC(Nc2nc3ccccc3n2Cc2ccc(F)cc2)CC1` [Compound 32, N,N-diethyl-N'-[2-[4-[[1-[(4-fluorophenyl)methyl]-1H-benzimidazol-2-yl]-amino]-1-piperidinyl]ethyl]thiourea], the ED50 was found to be 0.16 mg/kg.

In the case of `NNC(=S)NCCN1CCC(Nc2nc3ccccc3n2Cc2ccc(F)cc2)CC1.O` [Compound 34, N-[2-[4-[[1-[(4-fluorophenyl)methyl]-1H-benzimidazol-2-yl]amino]-1-piperidinyl]ethyl]hydrazinecarbothioamide monohydrate], the ED50 is 0.02 mg/kg.

For the compound `CCOC(=S)NCCN1CCC(Nc2nc3ccccc3n2Cc2ccc(F)cc2)CC1` [Compound 35, ethyl [2-[4-[[1-[(4-fluorophenyl)-methyl]-1H-benzimidazol-2-yl]amino]-1-piperidinyl]ethyl]carbamothioate], the ED50 amounted to 0.16 mg/kg.

Turning to `CNC(=O)N1CCC(N2CCC(Nc3nc4ccccc4n3Cc3ccc(F)cc3)CC2)CC1` [Compound 36, 4-[[1-(4-fluorophenyl)methyl]-1H-benzimidazol-2-ylamino]-N-methyl-[1,4'-bipiperidine]-1'-carboxamide monohydrate], the ED50 is 0.16 mg/kg.

For the compound `CNC(=S)N1CCCC(N2CCC(Nc3nc4ccccc4n3Cc3ccc(F)cc3)CC2)C1` (stereo not shown) [Compound 37, 4-[[1-[(4-fluorophenyl)methyl]-1H-benzimidazol-2-yl]amino]-N-methyl-[1,3'-bipiperidine]-1'-carbothioamide], the ED50 turned out to be 0.08 mg/kg.

With `Fc1ccc(Cn2c(NC3CCN(CCNC(=S)Nc4ccccc4)CC3)nc3ccccc32)cc1` [Compound 40, N-[2-[4-[[1-[(4-fluorophenyl)methyl]-1H-benzimidazol-2-yl]amino]-1-piperidinyl]ethyl]-N'phenylthiourea], the ED50 is 0.16 mg/kg.

Regarding `O=CNCCN1CCC(Nc2nc3ccccc3n2Cc2ccc(F)cc2)CC1` [Compound 45, N-[2-[4-[[1-[(4-fluorophenyl)methyl]-1H-benzimidazol-2-yl]amino]-1-piperidinyl]ethyl]formamide], the ED50 amounted to 0.08 mg/kg.

With `O=CNCCN1CCC(Nc2nc3ccccc3n2Cc2ccco2)CC1` [Compound 46, N-[2-[4-[[1-(2-furanylmethyl)-1H-benzimidazol-2-yl]amino]-1-piperidinyl]ethyl]formamide hemihydrate], the ED50 was 0.16 mg/kg.

`OCc1ccc(CN2CCC(Nc3nc4ccccc4n3Cc3ccc(F)cc3)CC2)o1` [Compound 47, 5-[[4-[[1-[(4-fluorophenyl)methyl]-1H-benzimdazol-2-yl]amino]-1-piperidinyl]methyl]-2-furanmethanol]: the ED50 came out at 0.08 mg/kg.

Take `Fc1ccc(Cn2c(NC3CCN(Cc4ccc(CSCCNc5ncccn5)o4)CC3)nc3ccccc32)cc1` [Compound 50]: the ED50 is 0.16 mg/kg.

For the compound `CC(=O)Nc1ccccc1C(=O)NCCN1CCC(Nc2nc3ccccc3n2Cc2ccc(F)cc2)CC1` [Compound 51, 2-(acetylamino)-N-[2-[4-[[1-[(4-fluorophenyl)methyl]-1H-benzimidazol-2-yl]amino]-1-piperidinyl]ethyl]benzamide], the ED50 turned out to be 0.16 mg/kg.

As for `CCN(C(C)=O)c1ccccc1C(=O)NCCN1CCC(Nc2nc3ccccc3n2Cc2ccc(F)cc2)CC1` [Compound 52, 2-(acetylethylamino)-N-[2-[4-[[(1-[(4-fluorophenyl)methyl]-1H-benzimidazol-2yl]amino]-1-piperidinyl]ethyl]benzamide (E) -2-butenedioate(1:2)], the ED50 amounted to 0.31 mg/kg.

As to `CS(=O)(=O)Nc1ccc(CCN2CCC(Nc3nc4ccccc4n3Cc3ccc(F)cc3)CC2)cc1` [Compound 53, N-4-[2-[4-[[1-[(4-fluorophenyl)methyl]-1H-benzimidazol-2-yl]amino]-1-piperidinyl]ethyl] methanesulfonamide monohydrate], the ED50 is 0.16 mg/kg.

With `NC(=O)Nc1ccc(CCN2CCC(Nc3nc4ccccc4n3Cc3ccc(F)cc3)CC2)cc1` [Compound 56], the ED50 was 0.04 mg/kg.

As for `CNC(=O)Nc1ccc(CCN2CCC(Nc3nc4ccccc4n3Cc3ccc(F)cc3)CC2)cc1` [Compound 57, N-[4-[2-[4-[[1-[(4-fluorophenyl)methyl]-1H-benzimidazol-2-yl]amino]-1-piperidinyl]ethyl]phenyl]-N'methylurea], the ED50 is 0.08 mg/kg.

In the case of `Br.Br.Oc1ccc(CCN2CCC(Nc3nc4ccccc4n3Cc3cscn3)CC2)cc1` [Compound 59, 4-[2-[4-[[1-(4-thiazolylmethyl)-1H-benzimidazol-2-yl]amino]-1-piperidinyl]ethyl]phenol dihydrobromide], the ED50 worked out at 0.08 mg/kg.
